Data: ChEMBL document CHEMBL1201862, “PubChem BioAssay data set” (2004)
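How tested: cells in 96-well plates exposed to compound for 48 hours at five concentrations. The concentration for 50% growth inhibition is given as GI50.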 Active and inactive are the calls of the source. Rule as the data show it: active = GI50 up to about 1.1 µM and inactive = higher.

Columns and labels:
Experiment in all cases: inhibition of tumour cell growth, NCI panel, 48 h
NCI-H23 = tested on: NCI-H23
HCT-116 = tested on: HCT-116
OVCAR-3 = tested on: OVCAR-3
SF-268 = tested on: SF-268
ACHN = tested on: ACHN
BT-549 = tested on: BT-549
SK-MEL-5 = tested on: SK-MEL-5
SNB-75 = tested on: SNB-75
Malme-3M = tested on: Malme-3M
UACC-257 = tested on: UACC-257
MDA-MB-231 = tested on: MDA-MB-231
SK-OV-3 = tested on: SK-OV-3
Hs-578T = tested on: Hs-578T
RXF 631 = tested on: RXF 631
SF-539 = tested on: SF-539
NCI-H226 = tested on: NCI-H226
SF-295 = tested on: SF-295
HT-29 = tested on: HT-29
OVCAR-4 = tested on: OVCAR-4
PC-3 = tested on: PC-3
HOP-18 = tested on: HOP-18
RXF 393 = tested on: RXF 393
OVCAR-5 = tested on: OVCAR-5
HCC 2998 = tested on: HCC 2998
M19-MEL = tested on: M19-MEL
MDA-N = tested on: MDA-N
LXFL 529 = tested on: LXFL 529
HOP-92 = tested on: HOP-92
IGROV-1 = tested on: IGROV-1
DMS-273 = tested on: DMS-273
HOP-62 = tested on: HOP-62
LOX IMVI = tested on: LOX IMVI
TK-10 = tested on: TK-10
NCI-H522 = tested on: NCI-H522
A498 = tested on: A498
XF498 = tested on: XF498
KM-20L2 = tested on: KM-20L2
HCT-15 = tested on: HCT-15
EKVX = tested on: EKVX
DLD-1 = tested on: DLD-1
MCF7 = tested on: MCF7
SK-MEL-28 = tested on: SK-MEL-28
HL-60 = tested on: HL-60
NCI-H460 = tested on: NCI-H460
K562 = tested on: K562
KM12 = tested on: KM12
U-251 = tested on: U-251
UO-31 = tested on: UO-31
RPMI-8226 = tested on: RPMI-8226
UACC-62 = tested on: UACC-62
OVCAR-8 = tested on: OVCAR-8
SNB-78 = tested on: SNB-78
SW-620 = tested on: SW-620
T47D = tested on: T47D
COLO 205 = tested on: COLO 205
MOLT-4 = tested on: MOLT-4
DMS-114 = tested on: DMS-114
SK-MEL-2 = tested on: SK-MEL-2
786-0 = tested on: 786-0
A549 = tested on: A549
DU-145 = tested on: DU-145
M14 = tested on: M14
SNB-19 = tested on: SNB-19
SN12C = tested on: SN12C
CCRF-CEM = tested on: CCRF-CEM
CAKI-1 = tested on: CAKI-1

## COc1ccc2nc(-c3ccc(O)cc3)cc(O)c2c1
NCI-H23
  GI50: 1.16 µM (inactive)
HCT-116
  GI50: 0.977 µM (active)
OVCAR-3
  GI50: 0.887 µM (active)
SF-268
  GI50: 0.764 µM (active)
ACHN
  GI50: 3.82 µM (inactive)
BT-549
  GI50: 25.9 µM (inactive)
SK-MEL-5
  GI50: 0.714 µM (active)
SNB-75
  GI50: 0.434 µM (active)
Malme-3M
  GI50: 0.459 µM (active)
UACC-257
  GI50: 1.87 µM (inactive)
MDA-MB-231
  GI50: 22.6 µM (inactive)
SK-OV-3
  GI50: 1.06 µM (active)
Hs-578T
  GI50: 4.3 µM (inactive)
RXF 631
  GI50: 3.63 µM (inactive)
SF-539
  GI50: 0.826 µM (active)
NCI-H226
  GI50: 0.959 µM (active)
SF-295
  GI50: 2.1 µM (inactive)
HT-29
  GI50: 2.26 µM (inactive)
OVCAR-4
  GI50: 5.12 µM (inactive)
PC-3
  GI50: 4.78 µM (inactive)
HOP-18
  GI50: 4.78 µM (inactive)
RXF 393
  GI50: 0.137 µM (active)
OVCAR-5
  GI50: > 25.9 µM (inactive)
HCC 2998
  GI50: 0.9 µM (active)
M19-MEL
  GI50: 0.465 µM (active)
MDA-N
  GI50: 2.76 µM (inactive)
LXFL 529
  GI50: 1.1 µM (active)
HOP-92
  GI50: 0.631 µM (active)
IGROV-1
  GI50: 3.87 µM (inactive)
DMS-273
  GI50: 0.206 µM (active)
HOP-62
  GI50: 1.42 µM (inactive)
LOX IMVI
  GI50: 1.58 µM (inactive)
TK-10
  GI50: 8.97 µM (inactive)
NCI-H522
  GI50: 0.579 µM (active)
A498
  GI50: 0.269 µM (active)
XF498
  GI50: 0.556 µM (active)
KM-20L2
  GI50: 1.7 µM (inactive)
HCT-15
  GI50: 1.36 µM
EKVX
  GI50: 7.06 µM (inactive)
DLD-1
  GI50: 1.35 µM (inactive)
MCF7
  GI50: 3.52 µM (inactive)
SK-MEL-28
  GI50: 1.15 µM (inactive)
HL-60
  GI50: 0.649 µM (active)
NCI-H460
  GI50: 1.95 µM (inactive)
K562
  GI50: 0.598 µM (active)
KM12
  GI50: 1.03 µM (active)
U-251
  GI50: 0.718 µM (active)
UO-31
  GI50: 3.14 µM (inactive)
RPMI-8226
  GI50: 1.65 µM (inactive)
UACC-62
  GI50: 0.697 µM (active)
OVCAR-8
  GI50: 2.28 µM (inactive)
SNB-78
  GI50: 0.841 µM (active)
SW-620
  GI50: 1.07 µM (active)
T47D
  GI50: 4.73 µM (inactive)
COLO 205
  GI50: 1.28 µM (inactive)
MOLT-4
  GI50: 1.41 µM (inactive)
DMS-114
  GI50: 0.474 µM (active)
SK-MEL-2
  GI50: 0.679 µM (active)
786-0
  GI50: 2.09 µM (inactive)
A549
  GI50: 3.7 µM (inactive)
DU-145
  GI50: 15.7 µM (inactive)
M14
  GI50: 0.857 µM (active)
SNB-19
  GI50: 3.75 µM (inactive)
SN12C
  GI50: 2.78 µM (inactive)
CCRF-CEM
  GI50: 1.09 µM (active)

## OC(CCNC12CC3CC(CC(C3)C1)C2)c1ccccc1 (stereo not given)
NCI-H23
  GI50: > 100 µM (inactive)
HCT-116
  GI50: 80.7 µM (inactive)
OVCAR-3
  GI50: > 100 µM (inactive)
SF-268
  GI50: > 100 µM (inactive)
ACHN
  GI50: > 100 µM (inactive)
SK-MEL-5
  GI50: 43.7 µM (inactive)
SNB-75
  GI50: 75.7 µM (inactive)
Malme-3M
  GI50: > 100 µM (inactive)
UACC-257
  GI50: > 100 µM (inactive)
SK-OV-3
  GI50: > 100 µM (inactive)
RXF 631
  GI50: > 100 µM (inactive)
SF-539
  GI50: > 100 µM (inactive)
NCI-H226
  GI50: > 100 µM (inactive)
SF-295
  GI50: > 100 µM (inactive)
HT-29
  GI50: 35.3 µM (inactive)
OVCAR-4
  GI50: > 100 µM (inactive)
HOP-18
  GI50: > 100 µM (inactive)
RXF 393
  GI50: > 100 µM (inactive)
OVCAR-5
  GI50: > 100 µM (inactive)
HCC 2998
  GI50: 68.7 µM (inactive)
M19-MEL
  GI50: > 100 µM (inactive)
CAKI-1
  GI50: > 100 µM (inactive)
LXFL 529
  GI50: > 100 µM (inactive)
HOP-92
  GI50: 78.3 µM (inactive)
IGROV-1
  GI50: 72.1 µM (inactive)
DMS-273
  GI50: 80.4 µM (inactive)
HOP-62
  GI50: > 100 µM (inactive)
TK-10
  GI50: > 100 µM (inactive)
NCI-H522
  GI50: > 100 µM (inactive)
A498
  GI50: > 100 µM (inactive)
XF498
  GI50: > 100 µM (inactive)
KM-20L2
  GI50: 49.3 µM (inactive)
HCT-15
  GI50: > 100 µM
EKVX
  GI50: > 100 µM (inactive)
DLD-1
  GI50: 99.8 µM (inactive)
SK-MEL-28
  GI50: > 100 µM (inactive)
HL-60
  GI50: > 100 µM (inactive)
NCI-H460
  GI50: > 100 µM (inactive)
KM12
  GI50: 88.9 µM (inactive)
U-251
  GI50: > 100 µM (inactive)
UO-31
  GI50: 43.9 µM (inactive)
UACC-62
  GI50: > 100 µM (inactive)
OVCAR-8
  GI50: > 100 µM (inactive)
SNB-78
  GI50: > 100 µM (inactive)
SW-620
  GI50: > 100 µM (inactive)
COLO 205
  GI50: 51.8 µM (inactive)
MOLT-4
  GI50: > 100 µM (inactive)
DMS-114
  GI50: 57.9 µM (inactive)
SK-MEL-2
  GI50: > 100 µM (inactive)
786-0
  GI50: > 100 µM (inactive)
A549
  GI50: > 100 µM (inactive)
M14
  GI50: 40.4 µM (inactive)
SNB-19
  GI50: > 100 µM (inactive)
SN12C
  GI50: > 100 µM (inactive)
CCRF-CEM
  GI50: 60.5 µM (inactive)
